Reference: paper PMC7210504 (Biochemistry, 2017)

What was measured:
ChuY [1] = target: T1, ChuY (Escherichia coli, UniProt Q8X5N4); assay: biochemical
[2] = target: ChuY from Escherichia coli O157:H7 (anaerobilin reductase) (Escherichia coli O157:H7); assay: AUC
ChuY [3] = target: T1, ChuY; conditions: read-out: steady state parameters^a / Km ^app; 30 μM NADPH; anaerobic, pH 8.1, 25 °C
ChuY [4] = target: T1, ChuY; conditions: 30 μM NADPH; anaerobic, pH 8.1, 25 °C; substrate inhibition constant (kinetic)

Compound: NC(=O)C1=CN([C@@H]2O[C@H](COP(=O)(O)OP(=O)(O)OC[C@H]3O[C@@H](n4cnc5c(N)ncnc54)[C@H](OP(=O)(O)O)[C@@H]3O)[C@@H](O)[C@H]2O)C=CC1 [NADPH]
- Kd (ChuY [1]): 2700 ± 200 nM

Compound: ChuY from Escherichia coli O157:H7 (anaerobilin reductase) (enzyme)
- percent of the c(s) distribution (species consistent with a dimer) [2]: 90%
- stoichiometry N [2]: 2

Compound: deuteroanaerobilin [DAB]
- Km (ChuY [3]): 1.6 ± 0.3 µM
- equilibrium binding^b / Ki ^app (ChuY [4]): 14000 ± 2000 nM
